22 compounds from ChEMBL document CHEMBL4680202, “Development, synthesis and biological investigation of a novel class of potent PC-PLC inhibitors” (Eur J Med Chem, 2020) can be followed below.

The structures appear in SMILES notation.

One assay concerns Bacillus cereus. In words: Inhibition of Bacillus cereus PC-PLC assessed as residual activity at 10 uM using phosphatidylcholine as substrate measured after 1 hr by horseradish peroxidase/alkaline phosphatase/choline oxidase-coupled amplex red reagent based fluorescence assay relative to control.
Conditions: not given
Consider `Fc1ccccc1CNc1ccc(N2CCOCC2)cc1`, for which the Activity is 0%.
The same measure, in the same setting: the result for `S=C([S-])OC1CC2CC1C1CCCC21.[K+]` (configuration not stated) reads 40.3%; that for `O=C(O)c1cc(NCc2cccc(Cl)c2)ccc1N1CCOCC1`, 10.7%; that for `COC(=O)c1cc(NCc2ccccc2C)ccc1N1CCOCC1`, 58.4%.
`COC(=O)c1cc(NCc2ccc(Br)cc2)ccc1N1CCOCC1`: the Activity was found to be 77.3%.
As to `Cc1ccccc1CNc1ccc(N2CCCCC2)cc1`, the Activity was 14.7%.
The same measure, in the same setting: the figure for `O=C(O)c1cc(NCc2ccc(C(F)(F)F)cc2)ccc1N1CCOCC1` is 45.5%; for `Brc1ccccc1CNc1ccc(N2CCOCC2)cc1` it is 14.1%; for `COc1ccccc1CNc1ccc(N2CCOCC2)c(C(=O)O)c1` it is 32.5%.
For the compound `COC(=O)c1cc(NCc2ccc(F)cc2)ccc1N1CCOCC1`, the Activity is 48.9%.
With `Fc1ccccc1CNc1ccc(N2CCNCC2)cc1`, the Activity came out at 24.1%.
As to `Brc1ccc(CNc2ccc(N3CCOCC3)cc2)cc1`, the Activity was found to be 18.1%.
Regarding `CN1CCN(c2ccc(NCc3ccc(F)cc3)cc2)CC1`, the Activity was 23.9%.
Still for that read-out and setting: the figure for `COc1cccc(CNc2ccc(N3CCOCC3)cc2)c1` is 5.6%.
Turning to `Fc1ccccc1CNc1ccc(N2CCCCC2)cc1`, the Activity is 9%.
The same measure, in the same setting: the result for `O=C(O)c1cc(NCc2ccccc2)ccc1N1CCOCC1` reads 32.5%.
The same measure, in the same setting: the figure for `Cc1cccc(CNc2ccc(N3CCOCC3)c(C(=O)O)c2)c1` is 23.7%.
With `CC(C)(C)OC(=O)N1CCN(c2ccc(NCc3ccccc3Br)cc2)CC1`, the Activity worked out at 35.6%.
For the compound `COC(=O)c1cc(NCc2cccc(C(F)(F)F)c2)ccc1N1CCOCC1`, the Activity was 64.1%.
Take `CC(C)(C)OC(=O)N1CCN(c2ccc(NCc3ccccc3F)cc2)CC1`: the Activity is 29.4%.
The same measure, in the same setting: the result for `Oc1cccc(CNc2ccc(N3CCCCC3)cc2)c1` reads 7.6%.
On to `CN1CCN(c2ccc(NCc3ccc(Cl)cc3)cc2)CC1`, for which the Activity was determined as 16.6%.

For the next assay, the system named is MDA-MB-231. In words: Cytotoxicity against human MDA-MB-231 cells assessed as reduction in cell proliferation measured at 50 ug/ml measured after 48 to 72 hrs by trypan blue exclusion assay relative to control. It counts as functional. Also on record: scale not given: the % may be the effect or the level left. Particulars: dose 50 µg/ml; time 48-72 hrs.
Consider `S=C([S-])OC1CC2CC1C1CCCC21.[K+]` (configuration not stated), for which the Activity was 60%.

Biological target in the next assay: not listed separately
Description: Inhibition of Bacillus cereus PC-PLC using phosphatidylcholine as substrate measured after 1 hr by horseradish peroxidase/alkaline phosphatase/choline oxidase-coupled amplex red reagent based fluorescence assay.
Conditions: not given
On to `Fc1ccccc1CNc1ccc(N2CCOCC2)cc1`, for which the IC50 is 1.06 µM.
For the compound `S=C([S-])OC1CC2CC1C1CCCC21.[K+]` (configuration not stated), 8.08 µM corresponded to half-maximal inhibition (IC50) and the inhibition constant Ki was 6.4 µM.
For `O=C(O)c1cc(NCc2cccc(Cl)c2)ccc1N1CCOCC1`, inhibition was half-maximal at 3.6 µM (IC50).
